Columns and labels:
[1] = target: T1, amyloid plaque (AB) in 5xFAD mouse brain slices (Homo sapiens, UniProt P05067); experiment: T2/T2*-weighted MRI of coronal brain slices labeled in vitro with spin-labeled compound; settings: 5xFAD brain slices/specimens incubated in vitro with compound
T1 construct: produces elevated amyloid beta levels in the brain; from tissue; host or cells: brain of 5xFAD transgenic mice (400 µm coronal slices)
Description: MR images of coronal brain slices (400 μm thick) were obtained from a transgenic AD mouse model (5xFAD) with and without exposure to HO-4160 nitroxide spin-labeled […] (SLF), where the SLF-negative sample was treated with DMSO vehicle equal to the SLF-exposed sample. Following the labeling period with either SLF or the DMSO vehicle control, the brain slices were imbedded into agarose and imaged by MRI. Measurements were made in three separate experiments, using slices from unique AD and wild type (WT) mice in each experiment.
5xFAD brain slices treated with SLF decrease in intensity to a mean value of 1.6±0.1×10^5, compared to the T2-weighted images of the untreated samples, with a mean value of 2.6±0.1×10^5. Evaluation of the two sets by the unpaired t-test supports a significant difference among these groups (p<0.01). With respect to T2*, there also is a significant (p<0.02) intensity difference between the two groups of 5xFAD specimens, with a mean intensity of 1.4±0.2×10^5 for the SLF-treated samples, and a mean intensity of 2.3±0.1×10^5 for the untreated samples. In addition, T2 and T2*-weighted imaging of corresponding slices from WT mice show no difference between the SLF-treated and SLF-negative (not shown) specimens.
Both T2 and T2* signal suppression was calculated in each of the three experiments. The average suppression values were calculated according to the equation: SS %=[(SIref−SI)/SIref]*100 where SI is the average signal intensity of the 5xFAD SLF+ section and SIref is the average signal intensity of the 5xFAD SLF− or WT SLF+ section. Calculation results are plotted in FIG. 7, where both the gray and white bars represent the suppression of MRI intensity found in the 5xFAD specimen following SLF treatment. The gray bars show signal suppression relative to the untreated 5xFAD brain, while the white bars compare the suppression relative to the SLF-treated specimens from WT mice. Relative to both controls, SLF generates ˜40% signal suppression for samples carrying a high amyloid-beta load. In the absence of SLF, the average intensity of the 5xFAD brain sections have a slightly lower T2/T2* MRI intensity than specimens from WT mice. This can be attributed to iron bound to deposits of AB, which has been previously observed in the MRI analyses of AD model mice (Vanhoutte et al. (2005); Jack et al. (2007); and Wadghiri et al. (2012)). Thus, the relative suppression is slightly higher when comparing the +SLF AD sample to the +SLF WT sample.

[2] = target: T2, amyloid (AB) in 5xFAD mouse brain tissue (Homo sapiens, UniProt P05067); experiment: EPR spectroscopy of brain slices labeled in vitro; format: binding; settings: 5xFAD brain tissue treated in vitro
T2 construct: produces elevated amyloid beta levels in the brain; from tissue; host or cells: brain of 5xFAD transgenic mice (400 µm coronal slices)
T2 sequence (P05067 672-713 limits assumed): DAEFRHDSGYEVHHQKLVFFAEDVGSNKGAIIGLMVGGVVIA
Source text: Samples were loaded into a quartz cell and examined by electron paramagnetic resonance (EPR) spectroscopy. […] Thus, in agreement with results from the MRI measurements, the lack of EPR signal from the WT+SLF brain section excludes non-specific binding of SLF in these tissue samples. […] The broad EPR spectrum from the +SLF 5xFAD reflects a strongly immobilized spin probe, consistent with high affinity binding to a solidified matrix.

MC65 neuroblastoma cell = experiment: MC65 assay: protection against AB toxicity (MTT cell viability); format: cell-based, human; settings: MC65 cells, TC removal, 3 days
Source text: The ability of agents to protect against AB toxicity can be measured according to their effect on the survivability of MC65 neuroblastoma cell (Maezawa et al. (2008) J. Neurochem. 104:457). In the MC65 model system, expression of the C-terminal region (C99) of the amyloid precursor protein (APP) is turned on in the absence of the transgene suppressor, tetracycline (TC). Upon APP-C99 induction (TC-), AB is generated after proteolysis by cellular γ-secretase […]. In the absence of protection, death of MC65 neuroblastoma cells results due to the intracellular accumulation of oligomeric AB (ABO). […] In Table 2 below, we report the ability of the SL-LRL1, SL-LRL2, SL-Res1, SL-Res2, and SL-Res3 compounds to protect against AB toxicity in the MC65 assay.
The cell culture model used for these studies was the human neuroblastoma cell line (MC65) equipped with conditional expression of the carboxyl-terminal 99 residues of the amyloid-beta precursor protein (APP-C99). AB is generated from APP-C99 after proteolysis by cellular γ-secretase. To induce cellular AB production, the transgene suppressor, tetracycline (TC), was removed from the media, as described previously (Maezawa et al. (2008)). Intracellular ABO starts to accumulate as early as 4 hours after TC removal. The compounds were added immediately after TC removal, and the cells were maintained for 3 days without media change before measuring cell viability. The cytotoxicity was determined on day 3 using a colorimetric MTT [3-(4,5-dimethylthiazol-2yl)-2,5-diphenyltetrazolium bromide] cell viability assay.

T1 sequence (P05067 672-713 limits assumed): as above

| Compound | contrast in T2*-weighted imaging [1] | EPR signal / binding to brain tissue [2] | EC50 (MC65 neuroblastoma cell) [µM] |
| --- | --- | --- | --- |
| Cc1c(C(N)=O)c(=O)oc2cc3c(cc12)nc(NCCNC(=O)C1CC(C)(C)N([O])C1(C)C)n3Cc1cccc(I)c1 (centres unmarked) [SL-LRL1, 3-(3-iodobenzyl)-8-methyl-6-oxo-2-((2-(2,2,5,5-tetramethyl-1-oxylpyrrolidine-3-carboxamido)ethyl)amino)-3,6-dihydrochromeno[6,7-d]imidazole-7-carboxamide Radical] | strong negative contrast | confirming the binding | 4.5 |
| Cc1c(C(N)=O)c(=O)oc2cc3c(cc12)nc(NCC1=CC(C)(C)N([O])C1(C)C)n3Cc1cccc(I)c1 [SL-LRL2, 3-(3-iodobenzyl)-8-methyl-6-oxo-2-(((2,2,5,5-tetramethyl-1-oxyl-2,5-dihydro-1H-pyrrol-3-yl)methyl)amino)-3,6-dihydrochromeno[6,7-d]imidazole-7-carboxamide Radical] | ability to generate negative contrast |  | 3.5 |
| CC1(C)C=C(COc2cc(O)cc(/C=C/c3ccc(O)cc3)c2)C(C)(C)N1[O] [SL-Res1] | ability to generate negative contrast |  | 0.45 |
| CC1(C)CC(NC(=O)COc2cc(O)cc(/C=C/c3ccc(O)cc3)c2)C(C)(C)N1[O] (centres unmarked) [SL-Res2, (E)-2-(3-hydroxy-5-(4-hydroxystyryl)phenoxy)-N-(2,2,5,5-tetramethyl-1-oxylpyrrolidin-3-yl)acetamide Radical] | ability to generate negative contrast |  | 0.68 |
| CC1(C)C=C(C(=O)Oc2ccc(/C=C/c3cc(O)cc(O)c3)cc2)C(C)(C)N1[O] [SL-Res3, (E)-4-(3,5-dihydroxystyryl)phenyl 2,2,5,5-tetramethyl-1-oxyl-2,5-dihydro-1H-pyrrole-3-carboxylate Radical] | ability to generate negative contrast |  | 0.41 |
